Source: EPA's ToxRefDB 2

What was measured:
rat [1] = conditions: Combined chronic toxicity/carcinogenicity; sprague dawley; Oral; Feed; dose end: 104 week; group: systemic; systemic / in life observation / body weight / body weight + systemic / in life observation / body weight / body weight gain + systemic / in…
rat [2] = conditions: Subchronic oral toxicity in rodents, sprague dawley, Feed, dose end: 13 week, group: systemic
mouse = conditions: Carcinogenicity; cd1; Oral; Feed; dose end: 78 week; group: systemic; systemic / in life observation / body weight / body weight + systemic / in life observation / body weight / body weight gain
primate [3] = conditions: Subchronic oral toxicity in nonrodent, Gavage/Intubation, dose end: 48 day, group: systemic
primate [4] = conditions: Sub-acute repeat dose toxicity; Oral; Gavage/Intubation; dose end: 5 day; group: systemic; systemic / in life observation / clinical signs / emesis + systemic / in life observation / food consumption / food consumption
rat [5] = conditions: Sub-acute repeat dose toxicity, sprague dawley, Oral, Gavage/Intubation, dose end: 14 day, group: systemic
rat [6] = conditions: Fertility (Segment I), sprague dawley, Oral, Gavage/Intubation, dose end: 1 generation, group: parental
rat [7] = conditions: Sub-acute repeat dose toxicity, sprague dawley, Oral, Gavage/Intubation, dose end: 12 day, group: systemic
rat [8] = conditions: Prenatal developmental toxicity study, sprague dawley, Oral, Gavage/Intubation, dose end: 18 GD
primate [9] = conditions: Sub-acute repeat dose toxicity, Oral, Gavage/Intubation, dose end: 9 day, group: systemic
rabbit [10] = conditions: Sub-acute repeat dose toxicity, new zealand white, Oral, Gavage/Intubation, dose end: 13 day
rabbit [11] = conditions: Prenatal developmental toxicity study; new zealand white; Oral; Gavage/Intubation; dose end: 19 GD; group: maternal; systemic / in life observation / body weight / body weight gain + systemic / in life observation / clinical signs / reduced activity + …
rat [12] = conditions: Subchronic oral toxicity in rodents, sprague dawley, Gavage/Intubation, dose end: 42 day, group: systemic
primate [13] = conditions: Subchronic oral toxicity in nonrodent, Gavage/Intubation, dose end: 42 day, group: systemic, systemic / in life observation / body weight / body weight + systemic / in life observation / clinical signs / emesis + systemic / in life …
rabbit [14] = conditions: Sub-acute repeat dose toxicity, Oral, Gavage/Intubation, dose end: 5 day, group: systemic
rat [15] = conditions: Fertility (Segment I), sprague dawley, Oral, Gavage/Intubation, dose end: 1 generation, group: parental; remark: listed apart in the source
rat [16] = conditions: Subchronic oral toxicity in rodents, Gavage/Intubation, dose end: 64 day, group: systemic, systemic / in life observation / body weight / body weight + systemic / in life observation / clinical signs / motor activity + systemic / …
rat [17] = conditions: Prenatal developmental toxicity study, Oral, Gavage/Intubation, dose end: 18 GD
rat [18] = conditions: Sub-acute repeat dose toxicity, sprague dawley, Oral, Gavage/Intubation, dose end: 22 day, group: systemic
dog = conditions: Sub-acute repeat dose toxicity; beagle; Inhalation; Whole-Body; dose end: 14 day; group: systemic; systemic / in life observation / food consumption / food consumption + systemic / pathology microscopic / nose / [other] + systemic / …
rat [19] = conditions: Sub-acute repeat dose toxicity; Inhalation; Whole-Body; dose end: 14 day; group: systemic; systemic / hematology / blood clotting / blood clotting - activated partial thromboplastin time + systemic / in life observation / body …
rat [20] = conditions: Sub-acute repeat dose toxicity, sprague dawley, Oral, Gavage/Intubation, dose end: 4 week, group: systemic
rabbit [21] = conditions: Prenatal developmental toxicity study, himalayan, Oral, Gavage/Intubation, dose end: 18 GD, group: maternal
rat [22] = conditions: Prenatal developmental toxicity study, sprague dawley, Oral, Gavage/Intubation, dose end: 17 GD
[23] = systemic / in life observation / body weight / body weight + systemic / in life observation / body weight / body weight gain + systemic / in…
[24] = systemic / in life observation / clinical signs / emesis + systemic / pathology microscopic / peritoneum / atrophy
[25] = systemic / in life observation / clinical signs / emesis + systemic / pathology microscopic / peritoneum / atrophy + systemic / in life …
[26] = systemic / in life observation / food consumption / food consumption
[27] = systemic / in life observation / food consumption / food consumption + systemic / pathology gross / intestine large / dilatation + systemic…
[28] = systemic / in life observation / body weight / body weight + systemic / in life observation / clinical signs / altered breathing rate + …
[29] = systemic / in life observation / body weight / body weight gain + systemic / in life observation / clinical signs / respiration (rales) + …
[30] = systemic / in life observation / body weight / body weight gain + systemic / in life observation / clinical signs / salivation + systemic / …
[31] = group: developmental, developmental / developmental malformation / eye / anophthalmia + developmental / developmental malformation / eye / microphthalmia + …
[32] = group: maternal, systemic / in life observation / body weight / body weight + systemic / in life observation / body weight / body weight gain + systemic / in…
[33] = systemic / hematology / lymphocyte / lymphocyte
[34] = systemic / in life observation / clinical signs / emesis + systemic / in life observation / clinical signs / salivation + systemic / …
[35] = group: maternal, reproductive / offspring survival early / litter viability other / litter viability
[36] = group: systemic, systemic / in life observation / body weight / body weight + systemic / in life observation / clinical signs / inappetence
[37] = group: systemic, systemic / in life observation / body weight / body weight + systemic / in life observation / clinical signs / inappetence + systemic / in …
[38] = systemic / hematology / erythrocyte (rbc) count differential / erythrocyte (rbc) + systemic / hematology / hemoglobin (hgb) / hemoglobin (…
[39] = systemic / in life observation / clinical signs / abnormal feces
[40] = systemic / in life observation / clinical signs / abnormal respiratory sounds + systemic / in life observation / clinical signs / drooping …
[41] = group: developmental, developmental / developmental malformation / bone / fused + developmental / developmental malformation / bone / delayed ossification + …
[42] = group: maternal, systemic / in life observation / body weight / body weight gain + systemic / in life observation / food consumption / food consumption
[43] = systemic / in life observation / body weight / body weight gain
[44] = systemic / hematology / mean corpuscular (cell) volume (mcv) / mean corpuscular (cell) volume (mcv) + systemic / pathology microscopic / …
[45] = systemic / in life observation / body weight / body weight gain + systemic / in life observation / food consumption / food consumption
[46] = group: developmental, developmental / developmental malformation / general / crown-rump length + systemic / in life observation / body weight / fetal weight
[47] = group: maternal, reproductive / reproductive performance / resorptions / resorptions + systemic / in life observation / body weight / body weight + systemic…

## CCCCCCCCCCCC[N+](C)(C)Cc1ccccc1.[Cl-]
Rat [1]
  LEL: 88 mg/kg/day
  LOAEL: 88 mg/kg/day
  NEL: 44 mg/kg/day
  NOAEL: 44 mg/kg/day
Rat [2]; systemic / in life observation / body weight / body weight + systemic / in life observation / body weight / body weight gain
  LOAEL: 62 mg/kg/day
Rat [2]; [23]
  NEL: 6.3 mg/kg/day
  NOAEL: 31.2 mg/kg/day
Rat [2]; systemic / in life observation / food consumption / food consumption + systemic / pathology gross / stomach / discolored
  LEL: 31.2 mg/kg/day
mouse
  LEL: 229 mg/kg/day
  LOAEL: 229 mg/kg/day
  NEL: 73.4 mg/kg/day
  NOAEL: 73.4 mg/kg/day

## C[C@@H](Oc1ccc(CNC(=O)c2cccnc2Oc2ccc3c(c2)OCO3)c(F)c1)C(=O)O
Primate [3]; [24]
  LEL: 5 mg/kg/day
  NEL: < 5 mg/kg/day
Primate [3]; [25]
  LOAEL: > 30 mg/kg/day
  NOAEL: ≥ 30 mg/kg/day
Primate [4]
  LEL: 30 mg/kg/day
  LOAEL: > 30 mg/kg/day
  NEL: < 30 mg/kg/day
  NOAEL: ≥ 30 mg/kg/day
Rat [5]; [26]
  LEL: 120 mg/kg/day
Rat [5]; systemic / in life observation / food consumption / food consumption + systemic / pathology gross / intestine large / dilatation
  NEL: 30 mg/kg/day
Rat [5]; [27]
  LOAEL: > 750 mg/kg/day
  NOAEL: ≥ 750 mg/kg/day
Rat [6]; [28]
  LOAEL: > 1000 mg/kg/day
  NEL: 50 mg/kg/day
  NOAEL: ≥ 1000 mg/kg/day
Rat [6]; systemic / in life observation / body weight / body weight + systemic / in life observation / clinical signs / drooping eyelids (ptosis) + …
  LEL: 400 mg/kg/day
Rat [7]; [29]
  LOAEL: > 1000 mg/kg/day
  NOAEL: ≥ 1000 mg/kg/day
Rat [7]; [30]
  LEL: 400 mg/kg/day
  NEL: < 400 mg/kg/day
Rat [8]; [31]
  LEL: 400 mg/kg/day
  LOAEL: > 1000 mg/kg/day
  NOAEL: ≥ 1000 mg/kg/day
Rat [8]; [32]
  LOAEL: > 1000 mg/kg/day
  NEL: 120 mg/kg/day
  NOAEL: ≥ 1000 mg/kg/day
Rat [8]; group: maternal, systemic / in life observation / clinical signs / salivation + systemic / in life observation / food consumption / food consumption + …
  LEL: 400 mg/kg/day
Primate [9]; [33]
  LEL: 100 mg/kg/day
  NEL: < 100 mg/kg/day
Primate [9]; [34]
  LOAEL: > 1000 mg/kg/day
  NOAEL: ≥ 1000 mg/kg/day
Rabbit [10]; [35]
  LEL: 600 mg/kg/day
  LOAEL: > 600 mg/kg/day
  NEL: 400 mg/kg/day
  NOAEL: ≥ 600 mg/kg/day
Rabbit [10]; [36]
  LEL: 120 mg/kg/day
  NEL: < 120 mg/kg/day
Rabbit [10]; [37]
  LOAEL: > 600 mg/kg/day
  NOAEL: ≥ 600 mg/kg/day
Rabbit [11]
  LEL: 200 mg/kg/day
  LOAEL: > 200 mg/kg/day
  NEL: 60 mg/kg/day
  NOAEL: ≥ 200 mg/kg/day
Rat [12]; [38]
  LOAEL: > 2000 mg/kg/day
  NOAEL: ≥ 2000 mg/kg/day
Rat [12]; systemic / hematology / neutrophils / neutrophils + systemic / in life observation / body weight / body weight + systemic / in life …
  NEL: 10 mg/kg/day
Rat [12]; systemic / pathology microscopic / mesentery / infiltration cellular
  LEL: 50 mg/kg/day
Primate [13]
  LEL: 200 mg/kg/day
  LOAEL: > 1000 mg/kg/day
  NEL: 30 mg/kg/day
  NOAEL: ≥ 1000 mg/kg/day
Rabbit [14]; [23]
  LOAEL: > 750 mg/kg/day
  NOAEL: ≥ 750 mg/kg/day
Rabbit [14]; [39]
  LEL: 120 mg/kg/day
  NEL: < 120 mg/kg/day
Rat [15]; [40]
  LOAEL: > 1000 mg/kg/day
  NEL: 50 mg/kg/day
  NOAEL: ≥ 1000 mg/kg/day
Rat [15]; systemic / in life observation / clinical signs / reduced activity + systemic / in life observation / clinical signs / salivation
  LEL: 400 mg/kg/day

## FC(F)(F)c1ccc2c(c1)[C@H]1CNC[C@@H]2C1
Rat [16]
  LEL: 3 mg/kg/day
  LOAEL: > 3 mg/kg/day
  NEL: 1 mg/kg/day
  NOAEL: ≥ 3 mg/kg/day
Rat [17]; group: developmental, developmental / developmental malformation / bone / delayed ossification + developmental / developmental malformation / bone / fused + …
  LEL: 3 mg/kg/day
Rat [17]; [41]
  LOAEL: > 7 mg/kg/day
  NOAEL: ≥ 7 mg/kg/day
Rat [17]; [32]
  LOAEL: > 7 mg/kg/day
  NOAEL: ≥ 7 mg/kg/day
Rat [17]; [42]
  LEL: 1 mg/kg/day
  NEL: < 1 mg/kg/day
Rat [18]; [23]
  LOAEL: > 7 mg/kg/day
  NOAEL: ≥ 7 mg/kg/day
Rat [18]; [43]
  LEL: 1 mg/kg/day
  NEL: < 1 mg/kg/day

## CN(C[C@@H](CC[N+]12CCC(C3CCCCC3)(CC1)CC2)c1ccc(Cl)c(Cl)c1)C(=O)c1cc(C(F)(F)F)cc(C(F)(F)F)c1.CS(=O)(=O)[O-]
dog
  LEL: 2 mg/kg/day
  LOAEL: > 2 mg/kg/day
  NEL: < 2 mg/kg/day
  NOAEL: ≥ 2 mg/kg/day
Rat [19]
  LEL: 2 mg/kg/day
  LOAEL: > 2 mg/kg/day
  NEL: < 2 mg/kg/day
  NOAEL: ≥ 2 mg/kg/day

## CCN(CC)C(=O)c1cc(S(=O)(=O)Cc2ccccc2)c(N2CCC(c3ccccc3)CC2)cc1N(CC)CCN(C)C [HMR1171]
Rat [20]; systemic / clinical chemistry / alkaline phosphatase (alp/alk) / alkaline phosphatase (alp/alk) + systemic / clinical chemistry / …
  NEL: 5 mg/kg/day
Rat [20]; [44]
  LEL: 20 mg/kg/day
  LOAEL: 20 mg/kg/day
  NOAEL: 5 mg/kg/day
Rabbit [21]; [45]
  LOAEL: > 240 mg/kg/day
  NEL: 60 mg/kg/day
  NOAEL: ≥ 240 mg/kg/day
Rabbit [21]; [26]
  LEL: 120 mg/kg/day
Rat [22]; [46]
  LEL: 60 mg/kg/day
  LOAEL: 60 mg/kg/day
  NEL: 10 mg/kg/day
  NOAEL: 10 mg/kg/day
Rat [22]; [47]
  LEL: 60 mg/kg/day
  LOAEL: 60 mg/kg/day
  NEL: 10 mg/kg/day
  NOAEL: 10 mg/kg/day
